The values that follow come from article PMC5218480 (PLoS ONE, 2017).

Molecules are shown by their SMILES.

The test relates to MV-4-11 cells. The experiment in a line: Gene expression microarray analysis (Affymetrix PrimeView) and GSEA. The following applies: ProbeSet 11740528_a_at; LIST D. The format is cell-based, human. Set-up: RFU PODN (11730768_x_at) / Fold change /veh PODN (11730768_x_at) / RFU LINC00158 (11744669_a_at) / Fold change /veh LINC00158 (11744669_a_at) / RFU DUSP10 (11751237_a_at) / Fold change /veh DUSP10 (11751237_a_at) / RFU ID3 (11757404_x_at) / Fold change /veh ID3 (11757404_x_at) / RFU PLEKHG5 (11737974_s_at) / Fold change /veh PLEKHG5 (11737974_s_at) / RFU LRRC4B (11730491_at) / Fold change /veh LRRC4B (11730491_at) / RFU GIMAP4 (11747438_a_at) / Fold change /veh GIMAP4 (11747438_a_at) / RFU KRT8 (11758183_x_at) / Fold change /veh KRT8 (11758183_x_at) / RFU CNN1 (11734310_a_at) / Fold change /veh CNN1 (11734310_a_at) / RFU VPS37D (11726825_at) / Fold change /veh VPS37D (11726825_at) / RFU C10orf10 (11716522_x_at) / Fold change /veh C10orf10 (11716522_x_at) / RFU KIR2DL2 /// KIR2DL4 /// KIR2DL5A /// KIR2DL5B /// KIR2DS1 /// KIR2DS2 /// KIR2DS3 /// KIR2DS4 /// KIR3DL3 /// KIR3DL3 /// KIR3DS1 (11738374_at) / Fold change /veh KIR2DL2 /// KIR2DL4 /// KIR2DL5A /// KIR2DL5B /// KIR2DS1 /// KIR2DS2 /// KIR2DS3 /// KIR2DS4 /// KIR3DL3 /// KIR3DL3 /// KIR3DS1 (11738374_at) / RFU C1QL1 (11718748_at) / Fold change /veh C1QL1 (11718748_at) / RFU TMPRSS4 (11747572_a_at) / Fold change /veh TMPRSS4 (11747572_a_at) / RFU HAMP (11756126_x_at) / Fold change /veh HAMP (11756126_x_at) / RFU RNFT2 (11725882_a_at) / Fold change /veh RNFT2 (11725882_a_at) / RFU NR4A2 (11747474_a_at) / Fold change /veh NR4A2 (11747474_a_at) / RFU ABCC12 (11746883_a_at) / Fold change /veh ABCC12 (11746883_a_at) / RFU TMEM136 (11760407_x_at) / Fold change /veh TMEM136 (11760407_x_at) / RFU CLDN22 /// WWC2 (11732394_at) / Fold change /veh CLDN22 /// WWC2 (11732394_at) / RFU HLA-DPB1 (11760878_x_at) / Fold change /veh HLA-DPB1 (11760878_x_at) / RFU SPINT1 (11716480_a_at) / Fold change /veh SPINT1 (11716480_a_at) / RFU GAP43 (11754022_s_at) / Fold change /veh GAP43 (11754022_s_at) / RFU A4GNT (11735810_at) / Fold change /veh A4GNT (11735810_at) / RFU PRB3 (11715151_x_at) / Fold change /veh PRB3 (11715151_x_at) / RFU TUBB4B (11761932_at) / Fold change /veh TUBB4B (11761932_at) / RFU CAPN14 (11732068_a_at) / Fold change /veh CAPN14 (11732068_a_at) / RFU TMCC2 (11721928_a_at) / Fold change /veh TMCC2 (11721928_a_at) / RFU IRGQ (11745062_a_at) / Fold change /veh IRGQ (11745062_a_at) / RFU FAM174B (11720279_a_at) / Fold change /veh FAM174B (11720279_a_at) / RFU TMPRSS4 (11748680_a_at) / Fold change /veh TMPRSS4 (11748680_a_at) / RFU FAM212B (11763350_a_at) / Fold change /veh FAM212B (11763350_a_at) / RFU PLEKHG5 (11743358_a_at) / Fold change /veh PLEKHG5 (11743358_a_at) / RFU ZSCAN30 (11745921_a_at) / Fold change /veh ZSCAN30 (11745921_a_at) / RFU CMKLR1 (11741424_a_at) / Fold change /veh CMKLR1 (11741424_a_at) / RFU LOC101060620 /// MAPK8IP1 (11723275_at) / Fold change /veh LOC101060620 /// MAPK8IP1 (11723275_at) / RFU SPTSSB (11747773_x_at) / Fold change /veh SPTSSB (11747773_x_at) / RFU PRSS12 (11739890_at) / Fold change /veh PRSS12 (11739890_at) / RFU BIN1 (11741810_x_at) / Fold change /veh BIN1 (11741810_x_at) / RFU WNT11 (11732464_a_at) / Fold change /veh WNT11 (11732464_a_at) / RFU C10orf10 (11716521_a_at) / Fold change /veh C10orf10 (11716521_a_at) / RFU C5orf56 (11738089_at) / Fold change /veh C5orf56 (11738089_at) / RFU CYB561 (11721691_x_at) / Fold change /veh CYB561 (11721691_x_at) / RFU ANKRD19P (11752326_a_at) / Fold change /veh ANKRD19P (11752326_a_at) / RFU OR2T12 /// OR2T33 /// OR2T8 (11738714_s_at) / Fold change /veh OR2T12 /// OR2T33 /// OR2T8 (11738714_s_at) / RFU VCAN (11748164_a_at) / Fold change /veh VCAN (11748164_a_at) / RFU JSRP1 (11732532_at) / Fold change /veh JSRP1 (11732532_at) / RFU KRTAP10-11 (11738290_x_at) / Fold change /veh KRTAP10-11 (11738290_x_at) / RFU MYO3A (11730013_a_at) / Fold change /veh MYO3A (11730013_a_at) / RFU EBF3 (11725865_a_at) / Fold change /veh EBF3 (11725865_a_at) / RFU CAMK2N1 (11719241_x_at) / Fold change /veh CAMK2N1 (11719241_x_at) / RFU C5orf56 (11738088_a_at) / Fold change /veh C5orf56 (11738088_a_at) / RFU OLFML3 (11715873_a_at) / Fold change /veh OLFML3 (11715873_a_at) / RFU LOC100653217 /// NTM (11731650_a_at) / Fold change /veh LOC100653217 /// NTM (11731650_a_at) / RFU MAPK11 (11762145_a_at) / Fold change /veh MAPK11 (11762145_a_at) / RFU FIZ1 (11724087_x_at) / Fold change /veh FIZ1 (11724087_x_at) / RFU OASL (11726364_x_at) / Fold change /veh OASL (11726364_x_at) / RFU SOX15 (11748057_x_at) / Fold change /veh SOX15 (11748057_x_at) / RFU CD79A (11719716_a_at) / Fold change /veh CD79A (11719716_a_at) / RFU HIST1H1D (11736915_at) / Fold change /veh HIST1H1D (11736915_at) / RFU CASKIN2 (11723855_a_at) / Fold change /veh CASKIN2 (11723855_a_at) / RFU LOC730098 (11760151_x_at) / Fold change /veh LOC730098 (11760151_x_at) / RFU OR4N2 (11742367_at) / Fold change /veh OR4N2 (11742367_at) / RFU PRRT2 (11749266_a_at) / Fold change /veh PRRT2 (11749266_a_at) / RFU SNX32 (11753110_a_at) / Fold change /veh SNX32 (11753110_a_at) / RFU CDHR5 (11726645_a_at) / Fold change /veh CDHR5 (11726645_a_at) / RFU RCAN1 (11760418_a_at) / Fold change /veh RCAN1 (11760418_a_at) / RFU FAM167A (11723789_a_at) / Fold change /veh FAM167A (11723789_a_at) / RFU FAM26E (11764081_at) / Fold change /veh FAM26E (11764081_at) / RFU ISYNA1 (11749810_s_at) / Fold change /veh ISYNA1 (11749810_s_at) / RFU ACY1 (11761880_at) / Fold change /veh ACY1 (11761880_at) / RFU 11764098_at / Fold change /veh 11764098_at / RFU SAMD14 (11745864_x_at) / Fold change /veh SAMD14 (11745864_x_at) / RFU NPB (11741838_a_at) / Fold change /veh NPB (11741838_a_at) / RFU TMPRSS6 (11731388_a_at) / Fold change /veh TMPRSS6 (11731388_a_at) / RFU KRTAP10-2 (11738614_at) / Fold change /veh KRTAP10-2 (11738614_at) / RFU ARHGAP8 /// PRR5-ARHGAP8 (11727945_x_at) / Fold change /veh ARHGAP8 /// PRR5-ARHGAP8 (11727945_x_at) / RFU KRTAP5-7 /// NADSYN1 (11734609_at) / Fold change /veh KRTAP5-7 /// NADSYN1 (11734609_at) / RFU RASL12 (11751679_a_at) / Fold change /veh RASL12 (11751679_a_at) / RFU CDKN2B (11736163_a_at) / Fold change /veh CDKN2B (11736163_a_at) / RFU PRF1 (11729649_at) / Fold change /veh PRF1 (11729649_at) / RFU, ZNF638 /// ZNF638-IT1 / Fold change vs veh, ZNF638 /// ZNF638-IT1 / RFU, PANK3 / Fold change vs veh, PANK3 / RFU, SH3YL1 / Fold change vs veh, SH3YL1 / RFU, ZEB2 / Fold change vs veh, ZEB2 / RFU, NRIP1 / Fold change vs veh, NRIP1 / RFU, PTTG1IP / Fold change vs veh, PTTG1IP / RFU, CAPN2 / Fold change vs veh, CAPN2 / RFU, MED14 / Fold change vs veh, MED14 / RFU, SNORA58 / Fold change vs veh, SNORA58 / RFU, C1orf63 / Fold change vs veh, C1orf63 / RFU, LRRFIP1 / Fold change vs veh, LRRFIP1 / RFU, NDUFAF7 / Fold change vs veh, NDUFAF7 / RFU, SLC12A2 / Fold change vs veh, SLC12A2 / RFU, IBTK / Fold change vs veh, IBTK / RFU, ESF1 / Fold change vs veh, ESF1 / Fold change vs veh, TMEM50B / RFU, TAOK1 / Fold change vs veh, TAOK1 / RFU, ACBD3 / Fold change vs veh, ACBD3 / RFU, TMA16 / Fold change vs veh, TMA16 / RFU, RWDD3 / Fold change vs veh, RWDD3 / RFU, BCAT1 / Fold change vs veh, BCAT1 / RFU, EDEM3 / Fold change vs veh, EDEM3 / RFU, TMEM33 / Fold change vs veh, TMEM33 / RFU, WDR75 / Fold change vs veh, WDR75 / RFU, AHCTF1 / Fold change vs veh, AHCTF1 / RFU, TFRC / Fold change vs veh, TFRC / RFU, ZDHHC17 / Fold change vs veh, ZDHHC17 / RFU, NOM1 / Fold change vs veh, NOM1 / RFU, ARL8B / Fold change vs veh, ARL8B / RFU, ZBTB11 / Fold change vs veh, ZBTB11 / RFU, TAMM41 / Fold change vs veh, TAMM41 / RFU, KIAA1704 /// LOC100996395 / Fold change vs veh, KIAA1704 /// LOC100996395 / RFU, ING1 / Fold change vs veh, ING1 / RFU, TRMT61B / Fold change vs veh, TRMT61B / RFU, FUBP3 / Fold change vs veh, FUBP3 / RFU, TP53 / Fold change vs veh, TP53 / RFU, TNKS2 / Fold change vs veh, TNKS2 / RFU, ZFP14 / Fold change vs veh, ZFP14 / RFU, ACTR2 / Fold change vs veh, ACTR2 / RFU, PPP3R1 / Fold change vs veh, PPP3R1 / RFU, PIK3R1 / Fold change vs veh, PIK3R1 / RFU, HNRNPA1 / Fold change vs veh, HNRNPA1 / RFU, RNF170 / Fold change vs veh, RNF170 / RFU, ZNF28 / Fold change vs veh, ZNF28 / RFU, RNGTT / Fold change vs veh, RNGTT / RFU, OGT / Fold change vs veh, OGT / RFU, BRD1 / Fold change vs veh, BRD1 / RFU, MARS / Fold change vs veh, MARS / RFU, ZNF655 / Fold change vs veh, ZNF655 / RFU, FAHD1 / Fold change vs veh, FAHD1 / RFU, BDP1 / Fold change vs veh, BDP1 / RFU, LRRCC1 / Fold change vs veh, LRRCC1 / RFU, ARID1A / Fold change vs veh, ARID1A / RFU, ZNF146 / Fold change vs veh, ZNF146 / RFU, ZNF330 / Fold change vs veh, ZNF330 / RFU, GPN3 / Fold change vs veh, GPN3 / RFU, C9orf123 / Fold change vs veh, C9orf123 / RFU, N4BP2L2 / Fold change vs veh, N4BP2L2 / RFU, ARFIP1 / Fold change vs veh, ARFIP1 / RFU, FAM179B / Fold change vs veh, FAM179B / RFU, BCL10 / Fold change vs veh, BCL10 / RFU, UHRF1BP1L / Fold change vs veh, UHRF1BP1L / RFU, BET1 / Fold change vs veh, BET1 / RFU, CNOT2 / Fold change vs veh, CNOT2 / RFU, ZNF268 / Fold change vs veh, ZNF268 / Fold change vs veh, ZNF507 / RFU, DGCR2 / Fold change vs veh, DGCR2 / RFU, WDSUB1 / Fold change vs veh, WDSUB1 / Fold change vs veh, HSP90B1 /// MIR3652 / RFU, ADSS / Fold change vs veh, ADSS / RFU, GK / Fold change vs veh, GK / RFU, ZNF148 / Fold change vs veh, ZNF148 / RFU, TAF9 / Fold change vs veh, TAF9 / RFU, SLC1A5 / Fold change vs veh, SLC1A5 / RFU, SLMO2 / Fold change vs veh, SLMO2 / RFU, ABCC4 / Fold change vs veh, ABCC4 / RFU, LOC101060439 /// RAP1B / Fold change vs veh, LOC101060439 /// RAP1B / RFU, RFX7 / Fold change vs veh, RFX7 / RFU, GTPBP10 / Fold change vs veh, GTPBP10 / RFU, CNEP1R1 / Fold change vs veh, CNEP1R1 / RFU, BIVM-ERCC5 /// ERCC5 / Fold change vs veh, BIVM-ERCC5 /// ERCC5 / RFU, ILF3 / Fold change vs veh, ILF3 / RFU 11762660_at / Fold change /veh 11762660_at / RFU VCAN (11757783_s_at) / Fold change /veh VCAN (11757783_s_at) / RFU DDX43 (11728927_at) / Fold change /veh DDX43 (11728927_at) / RFU KRT8 (11758188_x_at) / Fold change /veh KRT8 (11758188_x_at) / RFU NKD1 (11759106_at) / Fold change /veh NKD1 (11759106_at) / RFU SRD5A1 (11742802_a_at) / Fold change /veh SRD5A1 (11742802_a_at) / RFU TPSAB1 /// TPSB2 (11721975_s_at) / Fold change /veh TPSAB1 /// TPSB2 (11721975_s_at) / RFU GSTM3 (11746129_a_at) / Fold change /veh GSTM3 (11746129_a_at) / RFU IL23R (11737362_x_at) / Fold change /veh IL23R (11737362_x_at) / RFU TMEM51 (11727254_a_at) / Fold change /veh TMEM51 (11727254_a_at) / RFU PIWIL2 (11732686_x_at) / Fold change /veh PIWIL2 (11732686_x_at) / RFU ORM1 (11744905_x_at) / Fold change /veh ORM1 (11744905_x_at) / RFU CCDC152 (11743942_at) / Fold change /veh CCDC152 (11743942_at) / RFU ECM1 (11717891_a_at) / Fold change /veh ECM1 (11717891_a_at) / RFU IL23R (11748794_a_at) / Fold change /veh IL23R (11748794_a_at) / RFU TNFAIP8L3 (11732012_x_at) / Fold change /veh TNFAIP8L3 (11732012_x_at) / RFU MBOAT4 (11741988_at) / Fold change /veh MBOAT4 (11741988_at) / RFU 11764193_at / Fold change /veh 11764193_at / RFU TMEM53 (11763286_at) / Fold change /veh TMEM53 (11763286_at) / RFU MAGEB2 (11727129_at) / Fold change /veh MAGEB2 (11727129_at) / RFU TMEM200A (11744735_a_at) / Fold change /veh TMEM200A (11744735_a_at) / RFU CCDC152 (11751479_a_at) / Fold change /veh CCDC152 (11751479_a_at) / RFU FAM211A (11726209_a_at) / Fold change /veh FAM211A (11726209_a_at) / RFU RGS16 (11746705_a_at) / Fold change /veh RGS16 (11746705_a_at) / RFU VCAN (11755009_s_at) / Fold change /veh VCAN (11755009_s_at) / RFU RHOB (11743442_s_at) / Fold change /veh RHOB (11743442_s_at) / RFU RGS16 (11720943_a_at) / Fold change /veh RGS16 (11720943_a_at) / RFU RGS16 (11720944_at) / Fold change /veh RGS16 (11720944_at) / RFU, VPS4B / Fold change vs veh, VPS4B / RFU, CREB1 / Fold change vs veh, CREB1 / RFU, DNAJC13 / Fold change vs veh, DNAJC13 / RFU, GNAQ / Fold change vs veh, GNAQ / RFU, CDK5R1 / Fold change vs veh, CDK5R1 / RFU, ZRANB3 / Fold change vs veh, ZRANB3 / RFU, CUL4A / Fold change vs veh, CUL4A / RFU, CCNY / Fold change vs veh, CCNY / RFU, UFL1 / Fold change vs veh, UFL1 / RFU, COG3 / Fold change vs veh, COG3 / RFU, DIAPH2 / Fold change vs veh, DIAPH2 / RFU, SKA2 / Fold change vs veh, SKA2 / RFU, AFF3 / Fold change vs veh, AFF3 / RFU, LMF1 / Fold change vs veh, LMF1 / RFU, IPO11 / Fold change vs veh, IPO11 / RFU, DFFB / Fold change vs veh, DFFB / RFU, FOXP1 / Fold change vs veh, FOXP1 / RFU, CARD8 / Fold change vs veh, CARD8 / RFU, STRN3 / Fold change vs veh, STRN3 / RFU, ADK / Fold change vs veh, ADK / RFU, RASSF2 / Fold change vs veh, RASSF2 / RFU, WIPF1 / Fold change vs veh, WIPF1 / RFU, LARP1B / Fold change vs veh, LARP1B / RFU, RASA1 / Fold change vs veh, RASA1 / RFU, RB1 / Fold change vs veh, RB1 / RFU, PPFIA1 / Fold change vs veh, PPFIA1 / RFU, MAT2A / Fold change vs veh, MAT2A / RFU, CCT5 / Fold change vs veh, CCT5 / RFU, WDR92 / Fold change vs veh, WDR92 / RFU, CUX1 / Fold change vs veh, CUX1 / RFU, TTC7A / Fold change vs veh, TTC7A / RFU, TMEM135 / Fold change vs veh, TMEM135 / RFU, DEPTOR / Fold change vs veh, DEPTOR / RFU, CPM / Fold change vs veh, CPM / RFU, DNAJB6 / Fold change vs veh, DNAJB6 / RFU, CACNA2D3 / Fold change vs veh, CACNA2D3 / RFU, DTX4 / Fold change vs veh, DTX4 / RFU, TFCP2 / Fold change vs veh, TFCP2 / RFU, GMCL1 /// GMCL1P1 / Fold change vs veh, GMCL1 /// GMCL1P1 / RFU, AEBP2 / Fold change vs veh, AEBP2 / RFU, SNHG1 /// SNORD22 /// SNORD25 /// SNORD26 /// SNORD27 /// SNORD28 /// SNORD29 /// SNORD31 / Fold change vs veh, SNHG1 /// SNORD22 /// SNORD25 /// SNORD26 /// SNORD27 /// SNORD28 /// SNORD29 /// SNORD31 / Fold change (Aza/veh), C12orf56 (ProbeSet 11735607_a_at) / Fold change (ACY-1035/veh), C12orf56 (ProbeSet 11735607_a_at) / Fold change (Aza/veh), FGFR1OP (ProbeSet 11751329_s_at) / Fold change (ACY-1035/veh), FGFR1OP (ProbeSet 11751329_s_at) / Fold change (Aza/veh), VPS36 (ProbeSet 11739960_a_at) / Fold change (ACY-1035/veh), VPS36 (ProbeSet 11739960_a_at) / RFU SYPL1 (11715823_x_at) / Fold change /veh SYPL1 (11715823_x_at) / RFU IGFBP7 (11715501_s_at) / Fold change /veh IGFBP7 (11715501_s_at) / RFU REEP3 (11722064_at) / Fold change /veh REEP3 (11722064_at) / RFU IGLL1 (11728026_x_at) / Fold change /veh IGLL1 (11728026_x_at): dose or concentration left out as unconfirmed.

`Nc1ncn([C@@H]2O[C@H](CO)[C@@H](O)[C@H]2O)c(=O)n1` [azacitidine]: the “Fold change vs veh, AFF3” value amounted to 0.47.
